Source: patent US12084430B2, “Tricyclic urea compounds as JAK2 V617F inhibitors” (Incyte Corporation, priority 2022, dated 2024)
Where two headings read alike, the source gives them in different places.

Assays:
[1] = biological target: T1, pseudo-kinase domain (JH2) of human V617F mutant JAK2 (Homo sapiens, UniProt O60674, F794H/V617F/W659A/W777A); experiment: JAK2 LanthaScreen JH2-V617F binding assay; conditions: read-out: JH2 V617F Bind IC50
T1 construct: pseudo-kinase domain (JH2, amino-acids 536-812 with 3 surface mutations W659A, W777A, F794H); His (C); purchased BPS Bioscience 79498; host or cells: baculovirus expression system
T1 sequence (O60674 536-812 V617F/W659A/W777A/F794H): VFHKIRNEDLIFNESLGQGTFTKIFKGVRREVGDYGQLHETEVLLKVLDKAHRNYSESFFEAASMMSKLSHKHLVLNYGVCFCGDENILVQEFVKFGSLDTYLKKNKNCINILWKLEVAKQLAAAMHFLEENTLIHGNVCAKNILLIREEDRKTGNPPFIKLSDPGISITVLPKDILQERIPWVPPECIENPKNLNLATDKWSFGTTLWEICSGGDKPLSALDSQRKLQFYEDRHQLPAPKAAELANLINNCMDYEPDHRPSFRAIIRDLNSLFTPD
Protocol: Example B. JAK2 LanthaScreen JH2-V617F Binding Assay
JAK2 JH2-V617F binding assay utilizes pseudo-kinase domain (JH2, amino-acids 536-812 with 3 surface mutations W659A, W777A, F794H) of human V617F mutant JAK2 expressed as C-terminal His-Avi-tagged, biotinylated protein in a baculovirus expression system (BPS Bioscience, Catalog #79498). The assay was conducted in black 384-well polystyrene plates in a final reaction volume of 20 μL. JAK2 JH2-V617F (0.26 nM) was incubated with compounds (100 nL serially diluted in DMSO) in the presence of 50 nM Fluorescent JAK2-JH2 Tracer (MedChem Express Catalog #HY-102055) and 0.25 nM Streptavidin-Tb cryptate (Cisbio Part #610SATLB) in assay buffer (50 mM Tris, pH=7.5, 10 mM MgCl2, 0.01% Brij-35, 0.1% BSA, 1 mM EGTA, 5% Glycerol and 5 mM DTT). Non-specific binding was accessed in the presence of 2 mM ATP. After incubation for 1 hour at 25° C., LanthaScreen signals were read on a PHERAstar FS plate reader (BMG LABTECH). Data was analyzed with IDBS XLfit and GraphPad Prism 5.0 software using a four parameter dose response curve to determine IC50 for each compound.

[2] = biological target: T2, FLT3 (Homo sapiens, UniProt P36888); experiment: FLT3 enzymatic assay; assay type: biochemical; conditions: 1 mM ATP
T2 sequence (P36888 27-993): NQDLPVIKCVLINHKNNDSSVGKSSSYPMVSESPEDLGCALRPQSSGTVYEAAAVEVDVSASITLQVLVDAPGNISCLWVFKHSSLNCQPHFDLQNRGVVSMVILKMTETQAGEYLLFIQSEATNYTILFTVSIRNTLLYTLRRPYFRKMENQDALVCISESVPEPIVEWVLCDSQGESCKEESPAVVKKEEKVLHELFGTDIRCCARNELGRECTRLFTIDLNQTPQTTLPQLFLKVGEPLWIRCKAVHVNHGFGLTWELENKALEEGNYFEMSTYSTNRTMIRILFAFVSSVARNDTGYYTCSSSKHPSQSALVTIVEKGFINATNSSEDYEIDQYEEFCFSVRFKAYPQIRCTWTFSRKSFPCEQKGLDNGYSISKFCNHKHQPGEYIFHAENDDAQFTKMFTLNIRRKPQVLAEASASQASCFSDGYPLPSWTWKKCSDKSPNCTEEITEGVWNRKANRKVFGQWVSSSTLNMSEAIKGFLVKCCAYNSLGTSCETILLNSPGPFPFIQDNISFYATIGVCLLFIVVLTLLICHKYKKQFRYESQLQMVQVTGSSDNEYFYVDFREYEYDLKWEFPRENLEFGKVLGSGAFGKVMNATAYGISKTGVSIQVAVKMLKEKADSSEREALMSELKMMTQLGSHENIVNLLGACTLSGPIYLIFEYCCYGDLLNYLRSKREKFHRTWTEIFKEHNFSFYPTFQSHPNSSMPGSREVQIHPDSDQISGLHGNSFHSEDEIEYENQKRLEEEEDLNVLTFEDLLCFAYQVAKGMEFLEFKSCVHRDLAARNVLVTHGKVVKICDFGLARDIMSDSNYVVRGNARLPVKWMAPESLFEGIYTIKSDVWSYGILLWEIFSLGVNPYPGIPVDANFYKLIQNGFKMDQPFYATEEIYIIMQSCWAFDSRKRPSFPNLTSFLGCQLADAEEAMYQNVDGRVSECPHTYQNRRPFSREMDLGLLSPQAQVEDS
How it was run: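 Kinase reaction at room temperature in HEPES 50 mM pH 7.0 with 10 mM MgCl2, 1 mM DTT: 0.011 nM FLT3, 1 mM ATP, 500 nM biotinylated TK substrate, 0.5% DMSO. After 60 min, HTRF read as 665/620 nm ratio; IC50 from fit of percent control activity versus log concentration.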

[3] = In vivo pharmacokinetics, rat; set-up: species or system Sprague Dawley rats; conditions: male, Sprague Dawley, plasma, oral 3.0 mg/kg
Protocol: Example H. In Vivo Pharmacokinetics
Test compounds were administered to male Sprague Dawley rats or male and female Cynomolgus monkeys intravenously or via oral gavage. For intravenous (IV) dosing, test compounds were dosed at 1 mg/kg using a formulation of 10% dimethylacetamide (DMAC), 10% propylene glycol (PG) in acidified saline via IV bolus for rat or 10 min IV infusion for monkey. For oral (PO) dosing, test compounds were dosed at 3.0 mg/kg using 5% DMAC in 0.5% methylcellulose in citrate buffer (pH˜2.5). Blood samples were collected at predose and various time points up to 24 hours postdose. All blood samples were collected using EDTA as the anticoagulant and centrifuged to obtain plasma samples. The plasma concentrations of test compounds were determined by LC-MS/MS methods. The measured plasma concentrations were used to calculate PK parameters by standard noncompartmental methods using Phoenix® WinNonlin software program (version 8.0, Pharsight Corporation) or similar software. In rats and monkeys, cassette dosing of test compounds were conducted to obtain preliminary PK parameters. In vivo pharmacokinetic experiments with male beagle dogs may be performed under the conditions described above.

[2H]C([2H])([2H])n1cc(-c2[nH]c3ncc4c(c3c2-c2cc(F)c3c(cnn3C([2H])([2H])[2H])c2)n([C@@H]2CC[C@@H](NC(=O)OC)C2)c(=O)n4C([2H])([2H])[2H])c(F)n1 [Example 17, Methyl ((1R,3R)-3-(8-(7-fluoro-1-(methyl-d3)-1H-indazol-5-yl)-7-(3-fluoro-1-(methyl-d3)-1H-pyrazol-4-yl)-3-(methyl-d3)-2-oxo-3,6-dihydroimidazo[4,5-d]pyrrolo[2,3-b]pyridin-1(2H)-yl)cyclopentyl)carbamate]
IC50 ([1]; Table A): ≤ 10 nM | IC50 ([1]; Table C): ≤ 10 nM | IC50 [2]: 1250 to 2500 nM

[2H]C([2H])([2H])n1c(=O)n([C@@H]2CC[C@@H](NC(=O)OC)C2)c2c3c(-c4ccc5c(c4)COC5(C)C)c(-c4cn(CC(F)F)nc4F)[nH]c3ncc21 [Example 12, Methyl ((1R,3R)-3-(7-(1-(2,2-difluoroethyl)-3-fluoro-1H-pyrazol-4-yl)-8-(1,1-dimethyl-1,3-dihydroisobenzofuran-5-yl)-3-(methyl-d3)-2-oxo-3,6-dihydroimidazo[4,5-d]pyrrolo[2,3-b]pyridin-1(2H)-yl)cyclopentyl)carbamate]
IC50 ([1]; Table A): ≤ 10 nM | IC50 ([1]; Table C): ≤ 10 nM | IC50 [2]: > 2500 nM

[2H]C([2H])([2H])n1cc(-c2[nH]c3ncc4c(c3c2-c2ccc3c(cnn3CC(F)F)c2)n([C@@H]2CC[C@@H](NC(=O)OC)C2)c(=O)n4C([2H])([2H])[2H])c(F)n1 [Example 14, Methyl ((1R,3R)-3-(8-(1-(2,2-difluoroethyl)-1H-indazol-5-yl)-7-(3-fluoro-1-(methyl-d3)-1H-pyrazol-4-yl)-3-(methyl-d3)-2-oxo-3,6-dihydroimidazo[4,5-d]pyrrolo[2,3-b]pyridin-1(2H)-yl)cyclopentyl)carbamate]
IC50 ([1]; Table A): ≤ 10 nM | IC50 ([1]; Table C): ≤ 10 nM | IC50 [2]: 1250 to 2500 nM | AUC [3]: 0.5 to 1.5 µM·h

[2H]C([2H])([2H])n1cc(-c2[nH]c3ncc4c(c3c2-c2ccc3c(c2)COC3(C)C)n([C@@H]2CC[C@@H](NC(=O)OC)C2)c(=O)n4C)c(F)n1 [Example 11, Methyl ((1R,3R)-3-(8-(1,1-dimethyl-1,3-dihydroisobenzofuran-5-yl)-7-(3-fluoro-1-(methyl-d3)-1H-pyrazol-4-yl)-3-methyl-2-oxo-3,6-dihydroimidazo[4,5-d]pyrrolo[2,3-b]pyridin-1(2H)-yl)cyclopentyl)carbamate]
IC50 ([1]; Table A): ≤ 10 nM | IC50 ([1]; Table C): ≤ 10 nM | IC50 [2]: > 2500 nM

COc1nn(C)cc1-c1[nH]c2ncc3c(c2c1-c1ccc2c(cnn2C)c1)n([C@H]1CC[C@@H](CC#N)CC1)c(=O)n3C [E, reference compound]
IC50 [2]: 250 to 1250 nM

[2H]C([2H])([2H])n1c(=O)n([C@@H]2CC[C@@H](NC(=O)OC)C2)c2c3c(-c4ccc5c(c4)COC5(C)C)c(-c4cn(CC)nc4F)[nH]c3ncc21 [Example 20, Methyl ((1R,3R)-3-(8-(1,1-dimethyl-1,3-dihydroisobenzofuran-5-yl)-7-(1-ethyl-3-fluoro-1H-pyrazol-4-yl)-3-(methyl-d3)-2-oxo-3,6-dihydroimidazo[4,5-d]pyrrolo[2,3-b]pyridin-1(2H)-yl)cyclopentyl)carbamate]
IC50 ([1]; Table A): ≤ 10 nM | IC50 ([1]; Table C): ≤ 10 nM | IC50 [2]: > 2500 nM

[2H]C([2H])([2H])n1c(=O)n([C@@H]2CC[C@@H](NC(=O)OC)C2)c2c3c(-c4ccc5c(c4)COC5(C)C)c(-c4cn(C([2H])([2H])C([2H])([2H])[2H])nc4F)[nH]c3ncc21 [Example 19, Methyl ((1R,3R)-3-(8-(1,1-dimethyl-1,3-dihydroisobenzofuran-5-yl)-7-(1-(ethyl-d5)-3-fluoro-1H-pyrazol-4-yl)-3-(methyl-d3)-2-oxo-3,6-dihydroimidazo[4,5-d]pyrrolo[2,3-b]pyridin-1(2H)-yl)cyclopentyl)carbamate]
IC50 ([1]; Table A): ≤ 10 nM | IC50 ([1]; Table C): ≤ 10 nM | IC50 [2]: > 2500 nM

[2H]C([2H])([2H])n1cc(-c2[nH]c3ncc4c(c3c2-c2ccc3c(cnn3C(C)C)c2)n([C@@H]2CC[C@@H](NC(=O)OC)C2)c(=O)n4C)c(F)n1 [Example 16, Methyl ((1R,3R)-3-(7-(3-fluoro-1-(methyl-d3)-1H-pyrazol-4-yl)-8-(1-isopropyl-1H-indazol-5-yl)-3-methyl-2-oxo-3,6-dihydroimidazo[4,5-d]pyrrolo[2,3-b]pyridin-1(2H)-yl)cyclopentyl)carbamate]
IC50 ([1]; Table A): ≤ 10 nM | IC50 ([1]; Table C): ≤ 10 nM | IC50 [2]: 1250 to 2500 nM

[2H]C([2H])([2H])n1cc(-c2[nH]c3ncc4c(c3c2-c2ccc3c(cnn3C(C)C)c2)n([C@@H]2CC[C@@H](NC(=O)OC)C2)c(=O)n4C([2H])([2H])[2H])c(F)n1 [Example 13, Methyl ((1R,3R)-3-(7-(3-fluoro-1-(methyl-d3)-1H-pyrazol-4-yl)-8-(1-isopropyl-1H-indazol-5-yl)-3-(methyl-d3)-2-oxo-3,6-dihydroimidazo[4,5-d]pyrrolo[2,3-b]pyridin-1(2H)-yl)cyclopentyl)carbamate]
IC50 ([1]; Table A): ≤ 10 nM | IC50 ([1]; Table C): ≤ 10 nM | IC50 [2]: > 2500 nM | AUC [3]: 0.5 to 1.5 µM·h

[2H]C([2H])([2H])n1cc(-c2[nH]c3ncc4c(c3c2-c2ccc3c(cnn3CC(F)F)c2)n([C@@H]2CC[C@@H](NC(=O)OC)C2)c(=O)n4C)c(F)n1 [Example 18, Methyl ((1R,3R)-3-(8-(1-(2,2-difluoroethyl)-1H-indazol-5-yl)-7-(3-fluoro-1-(methyl-d3)-1H-pyrazol-4-yl)-3-methyl-2-oxo-3,6-dihydroimidazo[4,5-d]pyrrolo[2,3-b]pyridin-1(2H)-yl)cyclopentyl)carbamate]
IC50 ([1]; Table A): ≤ 10 nM | IC50 ([1]; Table C): ≤ 10 nM | IC50 [2]: 1250 to 2500 nM

[2H]C([2H])([2H])n1ncc2cc(-c3c(-c4cn(C([2H])(C([2H])([2H])[2H])C([2H])([2H])[2H])nc4F)[nH]c4ncc5c(c34)n([C@@H]3CC[C@@H](NC(=O)OC)C3)c(=O)n5C([2H])([2H])[2H])ccc21 [Example 21, Methyl ((1R,3R)-3-(7-(3-fluoro-1-(propan-2-yl-d7)-1H-pyrazol-4-yl)-3-(methyl-d3)-8-(1-(methyl-d3)-1H-indazol-5-yl)-2-oxo-3,6-dihydroimidazo[4,5-d]pyrrolo[2,3-b]pyridin-1(2H)-yl)cyclopentyl)carbamate]
IC50 ([1]; Table A): ≤ 10 nM | IC50 ([1]; Table C): ≤ 10 nM | IC50 [2]: 1250 to 2500 nM
